≈ marks a conversion by molar mass, not a printed value. Where two headings read alike, the source gives them in different places.
Assays:
HS 578T = test: NCI single-dose growth inhibition screen; assay type: cell-based; details: Homo sapiens; Breast Cancer HS 578T; single dose 10^−5 M
MALME-3 M = test: NCI single-dose growth inhibition screen; assay type: cell-based; details: Homo sapiens; Melanoma MALME-3 M; single dose 10^−5 M
BT-549 = test: NCI single-dose growth inhibition screen; assay type: cell-based; details: Homo sapiens; Breast Cancer BT-549; single dose 10^−5 M
MDA-MB-468 = test: NCI single-dose growth inhibition screen; assay type: cell-based; details: Homo sapiens; Breast Cancer MDA-MB-468; single dose 10^−5 M
SR = test: NCI single-dose growth inhibition screen; assay type: cell-based; details: Homo sapiens; Leukemia SR; single dose 10^−5 M
SF-539 = test: NCI single-dose growth inhibition screen; assay type: cell-based; details: Homo sapiens; CNS Cancer SF-539; single dose 10^−5 M
HL-60(TB) = test: NCI single-dose growth inhibition screen; assay type: cell-based; details: Homo sapiens; Leukemia HL-60(TB); single dose 10^−5 M
[1] = test system: K. pneumoniae ATCC 10,031; test: Antibacterial screening, agar cup diffusion method; assay type: cell-based; details: read-out: Minimum inhibitory concentrations (MIC, µM) K. pneumoniae ATCC 10,031
SK-MEL-28 = test: NCI single-dose growth inhibition screen; assay type: cell-based; details: Homo sapiens; Melanoma SK-MEL-28; single dose 10^−5 M
NCI-H23 = test: NCI single-dose growth inhibition screen; assay type: cell-based; details: Homo sapiens; Non-Small Cell Lung Cancer NCI-H23; single dose 10^−5 M
S. aureus ATCC 6538 = test: Antibacterial screening, agar cup diffusion method; assay type: cell-based; details: Staphylococcus aureus, ATCC6538; Gram + ve strain; read-out: Minimum inhibitory concentrations (MIC, µM) S. aureus ATCC 6538
Experimental: Anti-bacterial activity of the recently synthesized compounds 3a-k was evaluated at AUMC (Assiut University Mycological Centre), Assiut, Egypt. Assays were done against Gram-negative strains of K. pneumoniae (ATCC 100310, E. coli (ATCC 25922), Pseudomonas aeruginosa (ATCC 27853) and the Gram-positive S. aureus (ATCC 6538) strain utilizing standard agar cup diffusion method. The isolates from the four bacterial species examined were kept in TSB (Trypticase Soya Broth, Becton and Dickinson) with 10% glycerol at -70 °C and then subcultured on TSA (Trypticase Soya Agar, Becton and Dickinson) and TSB for 24 h at 37 °C former to inoculation. Bacterial isolates were then plated on sterile petri plates with 1 × 10^8 CFU/mL (0.5 McFarland turbidity) and 20 mL of Mueller Hinton Agar media (Oxoid) was then loaded. To ensure that the microorganisms were evenly dispersed, the plates were gently rotated before being left to harden on a level surface. Four equally spaced spherical-shaped wells (10 mm diameter) were painstakingly drilled using a sterilized cork bore after media solidification. All tested compounds under test underwent two-fold serial dilutions in a sequential manner. Three replications of 100 µL of each concentration were added to a well using a micropipette. Plates were then incubated for 24-hour at 37 °C. The average of the inhibition zones was then calculated. To determine the MICs, the natural logarithm of each diluted test substance’s concentration was plotted against the average area of the related inhibition zone. Following that, a regression line was created and the intercept on the ‘ln concentration” axis was determined, and the antilogarithm was calculated to indicate the MIC value[34],[63].

CAKI-1 = test: NCI single-dose growth inhibition screen; assay type: cell-based; details: Homo sapiens; Renal Cancer CAKI-1; single dose 10^−5 M
MCF7 = test: NCI single-dose growth inhibition screen; assay type: cell-based, human; details: Homo sapiens, MCF7, Breast Cancer MCF7; single dose 10^−5 M
E. coli ATCC 25,922 = test: Antibacterial screening, agar cup diffusion method; assay type: cell-based; details: read-out: Minimum inhibitory concentrations (MIC, µM) E. coli ATCC 25,922
UO-31 = test: NCI single-dose growth inhibition screen; assay type: cell-based, human; details: Homo sapiens, UO-31, Renal Cancer UO-31; single dose 10^−5 M
LOX IMVI = test: NCI single-dose growth inhibition screen; assay type: cell-based, human; details: Homo sapiens, LOX IMVI, Melanoma LOX IMVI; single dose 10^−5 M
SF-268 = test: NCI single-dose growth inhibition screen; assay type: cell-based; details: Homo sapiens; CNS Cancer SF-268; single dose 10^−5 M
EKVX = test: NCI single-dose growth inhibition screen; assay type: cell-based; details: Homo sapiens; Non-Small Cell Lung Cancer EKVX; single dose 10^−5 M
SNB-19 = test: NCI single-dose growth inhibition screen; assay type: cell-based; details: Homo sapiens; CNS Cancer SNB-19; single dose 10^−5 M
M14 = test: NCI single-dose growth inhibition screen; assay type: cell-based; details: Homo sapiens; Melanoma M14; single dose 10^−5 M
Experimental: Following the guidelines established by the drug evaluation department of the National Cancer Institute (NCI), USA, all target compounds 3a–l were examined against 60 cancer cell lines at a single concentration of 10 µM.
The anti-cancer potential of the tested compounds was evaluated at the National cancer institute (NCI), USA, against 9 panels of 60 various cell lines derived from nine human tumours available usually at NCI library. The procedures for the screening were described in details in NCI website (dttp://www.dtp.nci.nih.gov.) and were done according to NCI protocols[60] . The anticancer screening was carried out at single dose of 10^−5 M, NCI, Bethesda, USA. The results obtained as growth inhibition (%).

[2] = test system: P. aeruginosa ATCC 27,853; test: Antibacterial screening, agar cup diffusion method; assay type: cell-based; details: Pseudomonas aeruginosa, ATCC27; Gram –ve strain; read-out: Minimum inhibitory concentrations (MIC, µM) P. aeruginosa ATCC 27,853
A549/ATCC = test: NCI single-dose growth inhibition screen; assay type: cell-based; details: Homo sapiens; Non-Small Cell Lung Cancer A549/ATCC; single dose 10^−5 M
NCI-H460 = test: NCI single-dose growth inhibition screen; assay type: cell-based; details: Homo sapiens; Non-Small Cell Lung Cancer NCI-H460; single dose 10^−5 M
RXF 393 = test: NCI single-dose growth inhibition screen; assay type: cell-based; details: Homo sapiens; Renal Cancer RXF 393; single dose 10^−5 M
OVCAR-8 = test: NCI single-dose growth inhibition screen; assay type: cell-based; details: Homo sapiens; Ovarian Cancer OVCAR-8; single dose 10^−5 M
786-0 = test: NCI single-dose growth inhibition screen; assay type: cell-based; details: Homo sapiens; Renal Cancer 786-0; single dose 10^−5 M
SN12C = test: NCI single-dose growth inhibition screen; assay type: cell-based; details: Homo sapiens; Renal Cancer SN12C; single dose 10^−5 M
NCI-H522 = test: NCI single-dose growth inhibition screen; assay type: cell-based; details: Homo sapiens; Non-Small Cell Lung Cancer NCI-H522; single dose 10^−5 M
A498 = test: NCI single-dose growth inhibition screen; assay type: cell-based, human; details: Homo sapiens, A498, Renal Cancer A498; single dose 10^−5 M
[3] = Klebsiella pneumoniae, ATCC10, Gram –ve strain
[4] = Escherichia coli, ATCC25, Gram –ve strain

Structure (SMILES) | inhibition at 10 µM (HS 578T) [%] | inhibition at 10 µM (MALME-3 M) [%] | inhibition at 10 µM (MDA-MB-468) [%] | inhibition at 10 µM (SR) [%] | inhibition at 10 µM (SF-539) [%] | inhibition at 10 µM (HL-60(TB)) [%] | inhibition at 10 µM (SK-MEL-28) [%] | inhibition at 10 µM (NCI-H23) [%] | MIC (S. aureus ATCC 6538) [µM] | inhibition at 10 µM (CAKI-1) [%] | inhibition at 10 µM (MCF7) [%] | MIC (E. coli ATCC 25,922; [4]) [µM] | inhibition at 10 µM (UO-31) [%] | inhibition at 10 µM (LOX IMVI) [%] | inhibition at 10 µM (SF-268) [%] | inhibition at 10 µM (EKVX) [%] | inhibition at 10 µM (SNB-19) [%] | inhibition at 10 µM (M14) [%] | MIC [2] [µM] | inhibition at 10 µM (A549/ATCC) [%] | further results
COc1cc(/C=C2\SC(=O)N(CCCC(=O)N3CCN(c4cc5c(cc4F)c(=O)c(C(=O)O)cn5C4CC4)CC3)C2=O)cc(OC)c1OC [3 g] | 3.2 | < 0 | < 0 | 5.4 | 0.5 | < 0 | < 0 | 2.6 | > 20 | 2.2 | 3.6 | 0.25 (≈ 0.174 µg/mL) | 1.5 | 1.8 | 4.4 | < 0 | < 0 | 0.5 | > 20 | 3.5 | inhibition at 10 µM (BT-549): < 0%; MIC ([1]; Gram –ve strain): 0.25 µM (≈ 0.174 µg/mL); MIC [1, 3]: 0.13 to 0.8 µM (≈ 0.0903 to 0.556 µg/mL); inhibition at 10 µM (NCI-H460): < 0%; inhibition at 10 µM (RXF 393): < 0%; melting point: 252 °C; inhibition at 10 µM (OVCAR-8): 1.9%; inhibition at 10 µM (786-0): < 0%; inhibition at 10 µM (SN12C): 0.6%; inhibition at 10 µM (NCI-H522): 3.3%; inhibition at 10 µM (A498): 2.3%
O=C(O)c1cn(C2CC2)c2cc(N3CCN(C(=O)CCCN4C(=O)S/C(=C\c5ccc(Cl)cc5)C4=O)CC3)c(F)cc2c1=O [3 h] | < 0 | 10.9 | < 0 | 10.7 | 1.2 | < 0 | < 0 | 5.3 | > 20 | 4.4 | < 0 | 0.04 (≈ 0.0256 µg/mL) | 28 | 38.2 | 2.3 | 2.1 | 0 | 0.7 | > 20 | 3.4 | inhibition at 10 µM (BT-549): 3.8%; inhibition at 10 µM (NCI-H460): 0%; inhibition at 10 µM (RXF 393): < 0%; melting point: 273 °C; inhibition at 10 µM (OVCAR-8): 5.3%; inhibition at 10 µM (786-0): 11.3%; inhibition at 10 µM (SN12C): 0.4%; inhibition at 10 µM (NCI-H522): 18.3%; inhibition at 10 µM (A498): 7.7%
Cc1ccc(/C=C2\SC(=O)N(CCCC(=O)N3CCN(c4cc5c(cc4F)c(=O)c(C(=O)O)cn5C4CC4)CC3)C2=O)cc1 [3c] | < 0 | < 0 | < 0 | < 0 | 0.9 | 6.2 | < 0 | 1.8 | > 20 | 1.5 | < 0 | 0.48 (≈ 0.297 µg/mL) | 16.5 | 3.5 | 3.7 | 2.4 | < 0 | < 0 | > 20 | < 0 | inhibition at 10 µM (NCI-H460): < 0%; inhibition at 10 µM (RXF 393): 7.2%; melting point: 233 to 234 °C; inhibition at 10 µM (OVCAR-8): < 0%; inhibition at 10 µM (786-0): 0.9%; inhibition at 10 µM (SN12C): < 0%; inhibition at 10 µM (NCI-H522): 1.7%; inhibition at 10 µM (A498): 5.3%
O=C(O)c1cn(C2CC2)c2cc(N3CCN(C(=O)CCCN4C(=O)SC(=Cc5cccc([N+](=O)[O-])c5)C4=O)CC3)c(F)cc2c1=O [3d, 1-cyclopropyl-6-fluoro-7-[4-[4-[5-[(3-nitrophenyl)methylene]-2,4-dioxo-thiazolidin-3-yl]butanoyl]piperazin-1-yl]-4-oxoquinoline-3-carboxylic acid] | 8.2 | 9.8 | 0.5 | < 0 | 9.5 | < 0 | < 0 | 7.9 | > 20 | 5 | 1.9 | 0.2 (≈ 0.13 µg/mL) | 20.7 | 26.5 | 2.4 | 2.3 | 1 | 0.8 | 0.87 (≈ 0.565 µg/mL) | 7.8 | inhibition at 10 µM (BT-549): 3%; MIC ([1]; Gram –ve strain): 0.13 µM (≈ 0.0845 µg/mL); MIC [1, 3]: 0.13 to 0.8 µM (≈ 0.0845 to 0.52 µg/mL); inhibition at 10 µM (NCI-H460): < 0%; inhibition at 10 µM (RXF 393): < 0%; melting point: 263 °C; inhibition at 10 µM (OVCAR-8): 3.1%; inhibition at 10 µM (786-0): 8.5%; inhibition at 10 µM (SN12C): 3.7%; inhibition at 10 µM (NCI-H522): 20.7%; inhibition at 10 µM (A498): 8.9%
COc1ccc(/C=C2\SC(=O)N(CCCC(=O)N3CCN(c4cc5c(cc4F)c(=O)c(C(=O)O)cn5C4CC4)CC3)C2=O)cc1OC [3f] | 1.2 | 5.9 | < 0 | 19.5 | 4.4 | 1.9 | < 0 | < 0 | > 20 | 1.7 | 3.9 | 1.94 to 2.6 (≈ 1.29 to 1.73 µg/mL) | 14.5 | 2.4 | < 0 | 10.6 | 0.9 | < 0 | > 20 | 1.3 | inhibition at 10 µM (BT-549): 3.4%; MIC [1, 3]: > 20 µM; MIC (E. coli ATCC 25,922; Gram –ve strain): 2.23 µM (≈ 1.48 µg/mL); inhibition at 10 µM (NCI-H460): < 0%; inhibition at 10 µM (RXF 393): < 0%; melting point: 241 °C; inhibition at 10 µM (OVCAR-8): 2.9%; inhibition at 10 µM (786-0): 2.4%; inhibition at 10 µM (SN12C): 0.8%; inhibition at 10 µM (NCI-H522): 7.8%; inhibition at 10 µM (A498): 15.5%

From publication PMC11480511 (Scientific Reports, 2024)
